# Reference: publication PMC8414988 (Pediatric blood & cancer, 2021)
# Assay: Adverse events graded by NCI CTCAE v4.0, all reported regardless of attribution
# Type: in vivo, human
compound,measurement,setting,value
CC(=O)c1c(C)c2cnc(Nc3ccc(N4CCNCC4)cn3)nc2n(C2CCCC2)c1=O [palbociclib],most common toxicity,Stratum I and II,myelosuppression
same,"Alanine aminotransferase increased, episodes","Stratum I, grade 1",4(4)
same,"Alanine aminotransferase increased, patients","Stratum I, grade 1",4(4)
same,"Anemia, episodes","Stratum I, grade 1",7
same,"Anemia, patients","Stratum I, grade 1",5
same,"Ataxia, episodes","Stratum I, grade 1",1(1)
same,"Ataxia, patients","Stratum I, grade 1",1(1)
same,"Constipation, episodes","Stratum I, grade 1",8
same,"Constipation, patients","Stratum I, grade 1",6
same,"Diarrhea, episodes","Stratum I, grade 1",4
same,"Diarrhea, patients","Stratum I, grade 1",3
same,"Dry skin, episodes","Stratum I, grade 1",3(3)
same,"Dry skin, patients","Stratum I, grade 1",3(3)
same,"Fatigue, episodes","Stratum I, grade 1",7(7)
same,"Fatigue, patients","Stratum I, grade 1",7(7)
same,"Headache, episodes","Stratum I, grade 1",4
same,"Headache, patients","Stratum I, grade 1",3
same,"Hypokalemia, episodes","Stratum I, grade 1",5
same,"Hypokalemia, patients","Stratum I, grade 1",4
same,"Lymphocyte count decreased, episodes","Stratum I, grade 1",22
same,"Lymphocyte count decreased, patients","Stratum I, grade 1",8
same,"Mucositis oral, episodes","Stratum I, grade 1",5
same,"Mucositis oral, patients","Stratum I, grade 1",2
same,"Nausea, episodes","Stratum I, grade 1",4
same,"Nausea, patients","Stratum I, grade 1",3
same,"Neutrophil count decreased, episodes","Stratum I, grade 1",8
same,"Neutrophil count decreased, patients","Stratum I, grade 1",5
same,"Platelet count decreased, episodes","Stratum I, grade 1",28
same,"Platelet count decreased, patients","Stratum I, grade 1",10
same,"Vomiting, episodes","Stratum I, grade 1",5
same,"Vomiting, patients","Stratum I, grade 1",4
same,"White blood cell decreased, episodes","Stratum I, grade 1",14
same,"White blood cell decreased, patients","Stratum I, grade 1",9
same,"Anemia, episodes","Stratum I, grade 2",2(2)
same,"Anemia, patients","Stratum I, grade 2",2(2)
same,"Ataxia, episodes","Stratum I, grade 2",3(3)
same,"Ataxia, patients","Stratum I, grade 2",3(3)
same,"Fatigue, episodes","Stratum I, grade 2",3(3)
same,"Fatigue, patients","Stratum I, grade 2",3(3)
same,"Gait disturbance, episodes","Stratum I, grade 2",2(2)
same,"Gait disturbance, patients","Stratum I, grade 2",2(2)
same,"Headache, episodes","Stratum I, grade 2",3
same,"Headache, patients","Stratum I, grade 2",2
same,"Hypokalemia, episodes","Stratum I, grade 2",1(1)
same,"Hypokalemia, patients","Stratum I, grade 2",1(1)
same,"Lymphocyte count decreased, episodes","Stratum I, grade 2",17
same,"Lymphocyte count decreased, patients","Stratum I, grade 2",4
same,"Mucositis oral, episodes","Stratum I, grade 2",5
same,"Mucositis oral, patients","Stratum I, grade 2",2
same,"Nausea, episodes","Stratum I, grade 2",1(1)
same,"Nausea, patients","Stratum I, grade 2",1(1)
same,"Neutrophil count decreased, episodes","Stratum I, grade 2",26
same,"Neutrophil count decreased, patients","Stratum I, grade 2",7
same,"Vomiting, episodes","Stratum I, grade 2",1(1)
same,"Vomiting, patients","Stratum I, grade 2",1(1)
same,"White blood cell decreased, episodes","Stratum I, grade 2",37
same,"White blood cell decreased, patients","Stratum I, grade 2",14
same,"Ataxia, episodes","Stratum I, grade 3",1(1)
same,"Ataxia, patients","Stratum I, grade 3",1(1)
same,"Gait disturbance, episodes","Stratum I, grade 3",1(1)
same,"Gait disturbance, patients","Stratum I, grade 3",1(1)
same,"Lymphocyte count decreased, episodes","Stratum I, grade 3",12
same,"Lymphocyte count decreased, patients","Stratum I, grade 3",7
same,"Muscle weakness left-sided, episodes","Stratum I, grade 3",3(3)
same,"Muscle weakness left-sided, patients","Stratum I, grade 3",3(3)
same,"Nausea, episodes","Stratum I, grade 3",1(1)
same,"Nausea, patients","Stratum I, grade 3",1(1)
same,"Neutrophil count decreased, episodes","Stratum I, grade 3",27
same,"Neutrophil count decreased, patients","Stratum I, grade 3",9
same,"Vomiting, episodes","Stratum I, grade 3",1(1)
same,"Vomiting, patients","Stratum I, grade 3",1(1)
same,"White blood cell decreased, episodes","Stratum I, grade 3",19
same,"White blood cell decreased, patients","Stratum I, grade 3",3
same,"Neutrophil count decreased, episodes","Stratum I, grade 4",3(3)
same,"Neutrophil count decreased, patients","Stratum I, grade 4",3(3)
same,"Alanine aminotransferase increased, episodes","Stratum I, overall",4(4)
same,"Alanine aminotransferase increased, patients","Stratum I, overall",4(4)
same,"Anemia, episodes","Stratum I, overall",9
same,"Anemia, patients","Stratum I, overall",7
same,"Ataxia, episodes","Stratum I, overall",5(5)
same,"Ataxia, patients","Stratum I, overall",5(5)
same,"Constipation, episodes","Stratum I, overall",8
same,"Constipation, patients","Stratum I, overall",6
same,"Diarrhea, episodes","Stratum I, overall",4
same,"Diarrhea, patients","Stratum I, overall",3
same,"Dry skin, episodes","Stratum I, overall",3(3)
same,"Dry skin, patients","Stratum I, overall",3(3)
same,"Fatigue, episodes","Stratum I, overall",10
same,"Fatigue, patients","Stratum I, overall",9
same,"Gait disturbance, episodes","Stratum I, overall",3(3)
same,"Gait disturbance, patients","Stratum I, overall",3(3)
same,"Headache, episodes","Stratum I, overall",7
same,"Headache, patients","Stratum I, overall",4
same,"Hypokalemia, episodes","Stratum I, overall",6
same,"Hypokalemia, patients","Stratum I, overall",5
same,"Lymphocyte count decreased, episodes","Stratum I, overall",51
same,"Lymphocyte count decreased, patients","Stratum I, overall",13
same,"Mucositis oral, episodes","Stratum I, overall",10
same,"Mucositis oral, patients","Stratum I, overall",3
same,"Muscle weakness left-sided, episodes","Stratum I, overall",3(3)
same,"Muscle weakness left-sided, patients","Stratum I, overall",3(3)
same,"Nausea, episodes","Stratum I, overall",6
same,"Nausea, patients","Stratum I, overall",3
same,"Neutrophil count decreased, episodes","Stratum I, overall",64
same,"Neutrophil count decreased, patients","Stratum I, overall",15
same,"Platelet count decreased, episodes","Stratum I, overall",28
same,"Platelet count decreased, patients","Stratum I, overall",10
same,"Vomiting, episodes","Stratum I, overall",7
same,"Vomiting, patients","Stratum I, overall",5
same,"White blood cell decreased, episodes","Stratum I, overall",70
same,"White blood cell decreased, patients","Stratum I, overall",17
same,"Alanine aminotransferase increased, episodes","Stratum II, grade 1",3
same,"Alanine aminotransferase increased, patients","Stratum II, grade 1",2
same,"Anemia, episodes","Stratum II, grade 1",17
same,"Anemia, patients","Stratum II, grade 1",9
same,"Anorexia, episodes","Stratum II, grade 1",3(3)
same,"Anorexia, patients","Stratum II, grade 1",3(3)
same,"Aspartate aminotransferase increased, episodes","Stratum II, grade 1",2(2)
same,"Aspartate aminotransferase increased, patients","Stratum II, grade 1",2(2)
same,"Constipation, episodes","Stratum II, grade 1",1(1)
same,"Constipation, patients","Stratum II, grade 1",1(1)
same,"Dizziness, episodes","Stratum II, grade 1",3
same,"Dizziness, patients","Stratum II, grade 1",2
same,"Electrocardiogram qt corrected interval prolonged, episodes","Stratum II, grade 1",3
same,"Electrocardiogram qt corrected interval prolonged, patients","Stratum II, grade 1",2
same,"Fatigue, episodes","Stratum II, grade 1",2(2)
same,"Fatigue, patients","Stratum II, grade 1",2(2)
same,"Headache, episodes","Stratum II, grade 1",1(1)
same,"Headache, patients","Stratum II, grade 1",1(1)
same,"Hypercalcemia, episodes","Stratum II, grade 1",2(2)
same,"Hypercalcemia, patients","Stratum II, grade 1",2(2)
same,"Hyperkalemia, episodes","Stratum II, grade 1",2(2)
same,"Hyperkalemia, patients","Stratum II, grade 1",2(2)
same,"Hypokalemia, episodes","Stratum II, grade 1",3(3)
same,"Hypokalemia, patients","Stratum II, grade 1",3(3)
same,"Lymphocyte count decreased, episodes","Stratum II, grade 1",10
same,"Lymphocyte count decreased, patients","Stratum II, grade 1",5
same,"Mucositis oral, episodes","Stratum II, grade 1",1(1)
same,"Mucositis oral, patients","Stratum II, grade 1",1(1)
same,"Neutrophil count decreased, episodes","Stratum II, grade 1",6
same,"Neutrophil count decreased, patients","Stratum II, grade 1",4
same,"Pain, episodes","Stratum II, grade 1",1(1)
same,"Pain, patients","Stratum II, grade 1",1(1)
same,"Platelet count decreased, episodes","Stratum II, grade 1",16
same,"Platelet count decreased, patients","Stratum II, grade 1",8
same,"Vomiting, episodes","Stratum II, grade 1",5
same,"Vomiting, patients","Stratum II, grade 1",3
same,"White blood cell decreased, episodes","Stratum II, grade 1",13
same,"White blood cell decreased, patients","Stratum II, grade 1",5
same,"Anemia, episodes","Stratum II, grade 2",3(3)
same,"Anemia, patients","Stratum II, grade 2",3(3)
same,"Constipation, episodes","Stratum II, grade 2",2
same,"Constipation, patients","Stratum II, grade 2",1
same,"Dizziness, episodes","Stratum II, grade 2",1(1)
same,"Dizziness, patients","Stratum II, grade 2",1(1)
same,"Fatigue, episodes","Stratum II, grade 2",2(2)
same,"Fatigue, patients","Stratum II, grade 2",2(2)
same,"Headache, episodes","Stratum II, grade 2",1(1)
same,"Headache, patients","Stratum II, grade 2",1(1)
same,"Lymphocyte count decreased, episodes","Stratum II, grade 2",6
same,"Lymphocyte count decreased, patients","Stratum II, grade 2",3
same,"Mucositis oral, episodes","Stratum II, grade 2",1(1)
same,"Mucositis oral, patients","Stratum II, grade 2",1(1)
same,"Neutrophil count decreased, episodes","Stratum II, grade 2",19
same,"Neutrophil count decreased, patients","Stratum II, grade 2",10
same,"Platelet count decreased, episodes","Stratum II, grade 2",5
same,"Platelet count decreased, patients","Stratum II, grade 2",3
same,"White blood cell decreased, episodes","Stratum II, grade 2",18
same,"White blood cell decreased, patients","Stratum II, grade 2",9
same,"Headache, episodes","Stratum II, grade 3",2(2)
same,"Headache, patients","Stratum II, grade 3",2(2)
same,"Lymphocyte count decreased, episodes","Stratum II, grade 3",3(3)
same,"Lymphocyte count decreased, patients","Stratum II, grade 3",3(3)
same,"Neutrophil count decreased, episodes","Stratum II, grade 3",13
same,"Neutrophil count decreased, patients","Stratum II, grade 3",9
same,"Pain, episodes","Stratum II, grade 3",1(1)
same,"Pain, patients","Stratum II, grade 3",1(1)
same,"Platelet count decreased, episodes","Stratum II, grade 3",2(2)
same,"Platelet count decreased, patients","Stratum II, grade 3",2(2)
same,"Seizure, episodes","Stratum II, grade 3",3(3)
same,"Seizure, patients","Stratum II, grade 3",3(3)
same,"Vomiting, episodes","Stratum II, grade 3",1(1)
same,"Vomiting, patients","Stratum II, grade 3",1(1)
same,"White blood cell decreased, episodes","Stratum II, grade 3",7
same,"White blood cell decreased, patients","Stratum II, grade 3",6
same,"Neutrophil count decreased, episodes","Stratum II, grade 4",1(1)
same,"Neutrophil count decreased, patients","Stratum II, grade 4",1(1)
same,"Platelet count decreased, episodes","Stratum II, grade 4",1(1)
same,"Platelet count decreased, patients","Stratum II, grade 4",1(1)
same,"Alanine aminotransferase increased, episodes","Stratum II, overall",3
same,"Alanine aminotransferase increased, patients","Stratum II, overall",2
same,"Anemia, episodes","Stratum II, overall",20
same,"Anemia, patients","Stratum II, overall",10
same,"Anorexia, episodes","Stratum II, overall",3(3)
same,"Anorexia, patients","Stratum II, overall",3(3)
same,"Aspartate aminotransferase increased, episodes","Stratum II, overall",2(2)
same,"Aspartate aminotransferase increased, patients","Stratum II, overall",2(2)
same,"Constipation, episodes","Stratum II, overall",3
same,"Constipation, patients","Stratum II, overall",2
same,"Dizziness, episodes","Stratum II, overall",4
same,"Dizziness, patients","Stratum II, overall",3
same,"Electrocardiogram qt corrected interval prolonged, episodes","Stratum II, overall",3
same,"Electrocardiogram qt corrected interval prolonged, patients","Stratum II, overall",2
same,"Fatigue, episodes","Stratum II, overall",4(4)
same,"Fatigue, patients","Stratum II, overall",4(4)
same,"Headache, episodes","Stratum II, overall",4(4)
same,"Headache, patients","Stratum II, overall",4(4)
same,"Hypercalcemia, episodes","Stratum II, overall",2(2)
same,"Hypercalcemia, patients","Stratum II, overall",2(2)
same,"Hyperkalemia, episodes","Stratum II, overall",2(2)
same,"Hyperkalemia, patients","Stratum II, overall",2(2)
same,"Hypokalemia, episodes","Stratum II, overall",3(3)
same,"Hypokalemia, patients","Stratum II, overall",3(3)
same,"Lymphocyte count decreased, episodes","Stratum II, overall",19
same,"Lymphocyte count decreased, patients","Stratum II, overall",7
same,"Mucositis oral, episodes","Stratum II, overall",2(2)
same,"Mucositis oral, patients","Stratum II, overall",2(2)
same,"Neutrophil count decreased, episodes","Stratum II, overall",39
same,"Neutrophil count decreased, patients","Stratum II, overall",11
same,"Pain, episodes","Stratum II, overall",2(2)
same,"Pain, patients","Stratum II, overall",2(2)
same,"Platelet count decreased, episodes","Stratum II, overall",24
same,"Platelet count decreased, patients","Stratum II, overall",8
same,"Seizure, episodes","Stratum II, overall",3(3)
same,"Seizure, patients","Stratum II, overall",3(3)
same,"Vomiting, episodes","Stratum II, overall",6
same,"Vomiting, patients","Stratum II, overall",4
same,"White blood cell decreased, episodes","Stratum II, overall",38
same,"White blood cell decreased, patients","Stratum II, overall",11
